Results taken from patent publication US20240082221A1, “COMPOSITIONS AND METHODS FOR THE IDENTIFICATION OF COMPOUNDS THAT PROTECT AGAINST LIPOFUSCIN CYTOTOXICITY” (priority 2021, published 2024).

Assays:
[1] = test system: EDN2, FGF2, GFAP, SERP, VEGF, CXCL15, XBP1s, SCAND1, CEBPA, HMGA; assay: Intravitreal treatment of DKO mice, qPCR of retinal degeneration markers in whole retina; assay type: in vivo, ABCA4−/− RDH8−/− double knock-out mice (DKO); conditions: total RNA from whole retina, vs control injected eyes
Procedure: Pharmacological treatment of mice. KIRA6 (Cayman Chemical, item no. 19151) was injected intravitreously with 1 μL total volume. KIRA6 concentration is 20 μg/ml. The control eye received an equal amount of mock reagent (DMSO). Mouse was weighed and anesthetized with Ketamine cocktail at 10 mg/kg, then mouse eyes were dilated with Tropicamide. The exact volume of Mock reagent or Kira6 was determined by 10 μl Hamilton syringe. Under surgery microscope, mouse eye was placed in the center of the field, 34 gauge of needle was inserted into mouse eye at the Ora serrata and towards ONH. Once the needle was inside the mouse eye, 2 μl of the contents in the Hamilton syringe was injected. The needle was slowly withdrawn to prevent the reflux of the solution. Nec7 (2 μL of 33 mM stock in DMSO) was intravitreally injected in the left eye and an equal amount of vehicle (DMSO) was administered to the right eye. After intravitreal injection, the mouse was placed in a warm place until it completely woke up. […]
RNA isolation and quantitative PCR. […] The total RNA then was reversed transcribed using High-Capacity cDNA Reverse Transcription Kit (ThermoFisher Scientific, cat.no. 4368814) and analyzed gene expression using SYBR Green Master Mix (ThermoFisher Scientific, cat.no. 4472908) in an Applied Biosystems StepOne real time PCR machine. […]

XBP1s [2] = assay: Intravitreal treatment of DKO mice, XBP1s immunostaining of RPE flat mounts; assay type: in vivo, ABCA4−/− RDH8−/− double knock-out mice (DKO); conditions: 26 month old DKO mice, intraocular, a week later, vs mock treated eyes
Procedure: Animals. Pigmented ABCA4^−/− RDH8^−/− double knock-out mice (DKO), free of rd8 mutation, were purchased from Jackson laboratories and every 10 generations were in house backcrossed to the C57BL6J control strain, to prevent genetic drifts. Genotyping was performed at Transnetyx (Memphis, TN). Only mice with ABCA4, RDH8, RPE65-Leu450 but no crb1 mutations (retinal degeneration slow) were maintained in the colony. Controls C57BL/6J (Rpe65-Leu450, crb1negative) were also Jackson's lab. All mice were housed at Weill Cornell Medicine's animal facility under a 12 h light (˜10 lux)/12 h dark cycle environment or under complete darkness. Experimental manipulations in the dark were done under dim red light transmitted through a Kodak No. 1 safelight filter (transmittance >560 nm). No retinal degeneration or necroptosis markers were appreciably detected in 20 months or older C57BL6/N (Rpe65-Met450, crb1 positive) obtained from the NAI/NIH. All animal procedures and experiments were approved by the Animal Care and Use Committee of Weill Cornell Medical College in agreement with the guidelines established by the NIH Office of Laboratory Animal Welfare and the Association of Research for Vision and Ophthalmology (ARVO) statement for the use of animals in ophthalmic research. […]
Pharmacological treatment of mice. […] The exact volume of Mock reagent or Kira6 was determined by 10 μl Hamilton syringe. […]

ARPE19 cells = assay: ATR-induced light-independent cell death; assay type: cell-based, Human; conditions: pre-treatment with 33 μM
From the text: Overall, these indicate that necroptosis is a specific readout of ocular lipofuscin toxicity, easily distinguishable from the poisonous effects of ATR.

IRE1α = assay: qPCR of spliced XBP1 (XBP1s) as readout of IRE1α activity in ARPE-19; assay type: cell-based, Human; conditions: ARPE-19, qPCR
From the text: (§1) RNA isolation and quantitative PCR. Total RNA was extracted from cultured cells or mouse eye RPE layer using the RNeasy Mini kit (QIAGEN). The total RNA was digested with deoxyribonuclease I to prevent amplification of genomic DNA. The total RNA then was reversed transcribed using High-Capacity cDNA Reverse Transcription Kit (ThermoFisher Scientific, cat.no. 4368814) and analyzed gene expression using SYBR Green Master Mix (ThermoFisher Scientific, cat.no. 4472908) in an Applied Biosystems StepOne real time PCR machine. GAPDH was used as a reference gene. […] After genes were amplified by real time PCR, some of the PCR products were separated by 2.5% agarose gel.

XBP1s [3] = assay: qPCR of XBP1 splicing in hfRPE; assay type: cell-based, Human
From the text: as §1

SMILES | mRNA levels of markers for retinal degeneration, inflammation/angiogenesis, ER-stress and necroptosis [1] | XBP1s staining of whole RPE flat mounts (XBP1s [2]) | effect on cell death by ATR (ARPE19 cells) | effect on LF-induced XBP1 splicing (XBP1s, IRE1α activity) (IRE1α) | effect on LF-induced XBP1 splicing in hfRPE (XBP1s [3])
CC(C)(C)c1nc(-c2ccc(NC(=O)Nc3cccc(C(F)(F)F)c3)c3ccccc23)c2c(N)nccn12 [KIRA6] | generalized reduction in all the tested markers | decreased from the center to the periphery | – | – | –
N=C1S/C(=C\c2cn[nH]c2-c2ccc(F)cc2)C(=O)N1c1nccs1 [Nec7, Necrostatin 7] | – | – | did not block cell death | completely abrogated | prevention
